According to patent publication US8415312B2, “Compound which is a nystatin derivative” (Biosergen AS, priority 2007, dated 2013):
“And” between values parts separate entries of the source, which are not always exact repeats. Equal values may be shown once.

Legend:
[1] = tested on: erythrocytes; experiment: In vitro toxicity study, haemolysis (Tables 11 and 12); type: cell-based, horse; details: for Haemolysis of erythrocytes, Mean ± SE: 5 μg/mL (Table 11); for Haemolysis of erythrocytes: 5 μg/mL, individual blood samples # 1-3 (Table 11)
[2] = tested on: human blood erythrocytes; experiment: In vitro toxicity study, haemolysis (Table 10); type: cell-based; details: for Haemolysis of human blood erythrocytes: individual blood samples # 1-3, listed as Amp B
[3] = Solubility in 5% glucose; type: physicochemical

SMILES | Haemolysis of erythrocytes, Mean ± SE [1] [%] | Haemolysis of erythrocytes [1] | Haemolysis of human blood erythrocytes, MEAN ± SE ([2]; 2 μg/mL) [%] | Haemolysis of human blood erythrocytes ([2]; 2 μg/mL) | Haemolysis of human blood erythrocytes, MEAN ± SE ([2]; 5 μg/mL) [%] | Haemolysis of human blood erythrocytes ([2]; 5 μg/mL) | Haemolysis of erythrocytes ([1]; listed as Amp B) | solubility in 5% glucose [3] [µg/mL]
CC1C=CC=CC=CC=CC=CC=CC=CC(OC2OC(C)C(O)C(N)C2O)CC2OC(O)(CC(O)C(O)CCC(O)CC(O)CC(O)CC(=O)OC(C)C(C)C1O)CC(O)C2C(=O)NCCCN(C)C (stereo not drawn) [Compound 11, S44HP DMAP Amide] | 3.2 ± 0.1 | 3% and 3.4% and 3.3% | – | – | – | – | – | –
C[C@@H]1[C@H](O)[C@@H](C)/C=C/C=C/C=C/C=C/C=C/C=C/C=C/[C@H](O[C@@H]2O[C@H](C)[C@@H](O)[C@H](N)[C@@H]2O)C[C@@H]2O[C@](O)(C[C@@H](O)C[C@@H](O)[C@H](O)CC[C@@H](O)C[C@@H](O)CC(=O)O[C@H]1C)C[C@H](O)[C@H]2C(=O)O [Amphotericin B, reference compound] | 39.7 ± 1.2 | – | 6.1 ± 1.0 | 4.4% and 5.9% and 8.0% | 30.3 ± 0.6 | 30% and 29.5% and 31.5% | 39% and 38% and 42% | < 1000
